Source: article PMC11183114, “Structural basis of S-adenosylmethionine-dependent allosteric transition from active to inactive states in methylenetetrahydrofolate reductase” (Nature Communications, 2024)
Numbering of substitutions follows the chain as printed. Read-outs that look alike come from different tables or passages of the source.

Key:
[1] = target: T1, methylenetetrahydrofolate reductase (cMTHFR) (Thermochaetoides thermophila, UniProt G0S5U9); test: UV-Vis titration (FAD absorbance quench at […] nm, Hill fit, coefficient […]); […] also inhibits NADPH-menadione oxidoreductase activity by […]; type: binding
T1 construct: gene CTHT_0033700; cMTHFR^wt
T1 sequence (G0S5U9 1-614): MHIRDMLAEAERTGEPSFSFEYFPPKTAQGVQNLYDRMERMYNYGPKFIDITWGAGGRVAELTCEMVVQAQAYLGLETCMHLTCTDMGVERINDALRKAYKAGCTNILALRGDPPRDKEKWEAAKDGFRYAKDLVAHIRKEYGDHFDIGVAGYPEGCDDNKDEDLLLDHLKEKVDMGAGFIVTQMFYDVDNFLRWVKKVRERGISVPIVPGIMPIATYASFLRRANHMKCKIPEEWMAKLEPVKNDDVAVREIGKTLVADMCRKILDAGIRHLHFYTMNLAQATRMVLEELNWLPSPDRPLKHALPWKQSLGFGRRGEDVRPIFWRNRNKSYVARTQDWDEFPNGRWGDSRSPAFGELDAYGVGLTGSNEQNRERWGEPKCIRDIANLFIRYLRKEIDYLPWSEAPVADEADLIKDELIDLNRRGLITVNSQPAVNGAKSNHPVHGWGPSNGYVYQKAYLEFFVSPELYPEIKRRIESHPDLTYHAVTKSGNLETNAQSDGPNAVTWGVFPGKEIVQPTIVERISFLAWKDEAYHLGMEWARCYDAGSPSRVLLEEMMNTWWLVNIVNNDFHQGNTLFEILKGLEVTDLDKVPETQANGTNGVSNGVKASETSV

[2] = target: T2, methylenetetrahydrofolate reductase (cMTHFR) (Thermochaetoides thermophila, UniProt G0S5U9, R315A); test: X-ray crystal structure, […] Å (T-state); type: binding; design: gene CTHT_0033700; cMTHFR^R315A, homodimer; two AdoMet per regulatory domain
T2 sequence (G0S5U9 1-614 R315A): T1 sequence (G0S5U9 1-614) with R315A
From the text: Unexpectedly, two molecules of AdoMet were found

[3] = target: T3, methylenetetrahydrofolate reductase (cMTHFR) (Thermochaetoides thermophila, UniProt G0S5U9, E21Q/L393M/V516F); test: X-ray crystal structure, […] Å (R-state); type: binding
T3 construct: gene CTHT_0033700; cMTHFR^E21Q, L393M, V516F, surface lysines reductively methylated
T3 sequence (G0S5U9 1-614 E21Q/L393M/V516F): T1 sequence (G0S5U9 1-614) with E21Q, L393M, V516F

[4] = target: T2, methylenetetrahydrofolate reductase (cMTHFR); test: X-ray crystal structure, […] Å (T-state); type: binding; design: gene CTHT_0033700; cMTHFR^R315A
[5] = target: T1, methylenetetrahydrofolate reductase (cMTHFR); test: NADH-menadione oxidoreductase assay, purified enzyme ([…] NADH); type: biochemical
[6] = target: T1, methylenetetrahydrofolate reductase (cMTHFR); test: NADPH-menadione oxidoreductase assay, purified enzyme ([…] NADPH); type: biochemical

C[S@@+](CC[C@H](N)C(=O)[O-])C[C@H]1O[C@@H](n2cnc3c(N)ncnc32)[C@H](O)[C@@H]1O [AdoMet]
Kd [1]: ~18.8 µM | X-ray crystal structure, 2.8 Å (T-state) [2]: The regulatory domain was found to bind AdoMet, as expected for the T-state. Unexpectedly, two molecules of AdoMet were found

Cc1cc2nc3c(=O)[nH]c(=O)nc-3n(C[C@H](O)[C@H](O)[C@H](O)COP(=O)(O)OP(=O)(O)OC[C@H]3O[C@@H](n4cnc5c(N)ncnc54)[C@H](O)[C@@H]3O)c2cc1C [FAD]
X-ray crystal structure, 3.4 Å (R-state) [3]: Electron density for FAD was observed in every catalytic active site. | X-ray crystal structure, 2.8 Å (T-state) [4]: the si-face of FAD is occluded by Tyr361 on the C-terminal region of the linker, which forms a π-stacking interaction

NC(=O)C1=CN([C@@H]2O[C@H](COP(=O)(O)OP(=O)(O)OC[C@H]3O[C@@H](n4cnc5c(N)ncnc54)[C@H](O)[C@@H]3O)[C@@H](O)[C@H]2O)C=CC1 [NADH]
NADH-menadione oxidoreductase assay, purified enzyme (100 μM NADH) [5]: 44 µM/min

NC(=O)C1=CN([C@@H]2O[C@H](COP(=O)(O)OP(=O)(O)OC[C@H]3O[C@@H](n4cnc5c(N)ncnc54)[C@H](OP(=O)(O)O)[C@@H]3O)[C@@H](O)[C@H]2O)C=CC1 [NADPH]
NADPH-menadione oxidoreductase assay, purified enzyme (100 μM NADPH) [6]: 120 µM/min
